Results from patent US7307077B2, “Heterocyclic compound and antitumor agent containing the same as effective ingredient” (Zenyaku Kogyo Kabushiki Kaisha, priority 2001, dated 2007).

What was measured:
MCF-7 cells = test: Test 1: growth inhibition of MCF-7 human breast cancer cells; assay type: cell-based; details: Homo sapiens, MCF7, 72 hours culture with sample, read-out: GI50 (50% growth inhibition concentration)
Procedure: Used in the test were MCF-7 cells which were established from human breast cancer and were cultured routinely under the conditions of 37° C. and 5% CO2, in MEM medium supplemented with 10% fetal calf serum, 25 mM of HEPES and 0.1 mg/ml of kanamycin. The MCF-7 cells in a logarithmic growth phase were treated with trypsin/EDTA to prepare single cell suspension adjusted to 4.0×10^4 cells/ml in MEM medium (supplemented with 10% fetal calf serum, 25 mM of HEPES and 0.1 mg/ml of kanamycin). Test compounds were dissolved in DMSO and diluted with RPMI 1640 medium (supplemented with 10% fetal calf serum, 25 mM of HEPES and 0.1 mg/ml of kanamycin) to a concentration of 2.0×10^−4-2.0×10^−9 M.
The cell suspension was filled in a 96-wells microplate at a rate of 0.1 ml per well and was cultured for 24 hours so as to make the cells adhered to the microplate. Then, it was added with 0.1 ml of the sample solution and cultured at 37° C. for 72 hours in 5% CO2.
50% Growth inhibition concentrations (GI50 μM) were calculated from growth inhibitions at various sample concentrations.

Human colon cancer WiDr = test: Test 2: human colon cancer WiDr subcutaneous tumor in nude mice; assay type: in vivo, mutant BALA/c nude mice; details: intraperitoneally 200 mg/kg, once a day, six times a week, for two weeks
Procedure: Human colon cancer WiDr was grown as subcutaneous tumor in mutant BALA/c nude mice. 2-mm-cube tumor fragments were transplanted subcutaneously into left flank of the nude mice. When the tumor reached logarithmic growth phase, mice were divided randomly into test groups consisting five mice per group. The samples prepared by dissolving test compounds in physiological saline solution or suspending them in 1% hydroxypropyl cellulose (HPC), using an agate mortar, were intraperitoneally administered at a rate of 200 mg/kg, once a day and six times a week in total, for two weeks. Major and minor axes of the tumor mass were measured on a daily basis to calculate tumor volume. The tumor volume at each measured day was divided by that at the start day of the sample administration to calculate relative tumor growth rate; and the relative tumor growth rate of the treated groups (T) and that of the control group (C) were used to calculate T/C (%).

SMILES | GI50 (MCF-7 cells) [nM] | judgment (T/C (%) of relative tumor growth rate, last day) (Human colon cancer WiDr) | melting point
CC1(C)CN(c2nc(N3CCOCC3)nc(-n3c(C(F)F)nc4ccc(N)cc43)n2)CCO1 [compound 32, 2-(6-amino-2-difluoromethylbenzimidazol-1-yl)-4-(2,2-dimethylmorpholino)-6-morpholino-1,3,5-triazine] | 180 | + (Cases where T/C (%) of the last day was less than 50% and U-assay of Mann-Whitney revealed significant difference with one-sided risk rate of 1% were judged to be effective (+)) | 226 to 227 °C (dec.)
C[C@@H]1OCCN(c2cc(N3CCOCC3)nc(-n3c(N)nc4ccccc43)n2)[C@H]1C.Cl (relative stereo) [compound 31, 2-(2-aminobenzimidazol-1-yl)-4-(trans-2,3-dimethylmorpholino)-6-morpholinopyrimidine hydrochloride] | 240 | + (Cases where T/C (%) of the last day was less than 50% and U-assay of Mann-Whitney revealed significant difference with one-sided risk rate of 1% were judged to be effective (+)) | 141 to 145 °C
C[C@@H]1OCCN(c2nc(N3CCOCC3)nc(-n3c(C(F)F)nc4ccc(N)cc43)n2)[C@@H]1C (relative stereo) [compound 33, 2-(6-amino-2-difluoromethylbenzimidazol-1-yl)-4-(2,3-cis-dimethylmorpholino)-6-morpholino-1,3,5-triazine] | 80 | + (Cases where T/C (%) of the last day was less than 50% and U-assay of Mann-Whitney revealed significant difference with one-sided risk rate of 1% were judged to be effective (+)) | 220 to 222 °C (dec.)
C[C@@H]1OCCN(c2cc(N3CCOCC3)nc(-n3c(NC=O)nc4ccccc43)n2)[C@H]1C (relative stereo) [compound 27, 4-(trans-2,3-dimethylmorpholino)-2-(2-formylaminobenzimidazol-1-yl)-6-morpholinopyrimidine] | 160 |  | 143 to 146 °C
C[C@@H]1COC(C)(C)CN1c1nc(N2CCOCC2)nc(-n2c(C(F)F)nc3ccccc32)n1 [compound 20, 2-(2-difluoromethylbenzimidazol-1-yl)-4-morpholino-6-[2,2,5(R)-trimethylmorpholino]-1,3,5-triazine] | 220 |  | 169 to 171 °C
C[C@@H]1OCCN(c2cc(N3CCOCC3)nc(-n3c(C(F)F)nc4ccc(N)cc43)n2)[C@@H]1C (relative stereo) [compound 36, 2-(6-amino-2-difluoromethylbenzimidazol-1-yl)-4-(2,3-cis-dimethylmorpholino)-6-morpholinopyrimidine] | 290 |  | 155 to 158 °C (dec.)
CC1(C)OCCN1c1nc(N2CCOCC2)nc(-n2c(C(F)F)nc3cc(O)ccc32)n1 [compound 39, 2-(2-difluoromethyl-5-hydroxybenzimidazol-1-yl)-4-(2,2-dimethyloxazolidin-3-yl)-6-morpholino-1,3,5-triazine] | 60 |  | 239 to 243 °C (dec.)
FC(F)c1nc2ccccc2n1-c1nc(N2CCOCC2)nc(N2CCOCC2)n1 [compound 19, 2-(2-difluoromethylbenzimidazol-1-yl)-4,6-dimorpholino-1,3,5-triazine] | 90 | + (Cases where T/C (%) of the last day was less than 50% and U-assay of Mann-Whitney revealed significant difference with one-sided risk rate of 1% were judged to be effective (+)) | 
CC(=O)Nc1nc2ccccc2n1-c1nc(N2CCOCC2)nc(N2CCOCC2)n1 [compound 22, 2-(2-acetylaminobenzimidazol-1-yl)-4,6-dimorpholino-1,3,5-triazine] | 230 | + (Cases where T/C (%) of the last day was less than 50% and U-assay of Mann-Whitney revealed significant difference with one-sided risk rate of 1% were judged to be effective (+)) | 243 to 245 °C
C[C@@H]1OCCN(c2cc(N3CCOCC3)nc(-n3c(N)nc4ccccc43)n2)[C@@H]1C.Cl (relative stereo) [compound 30, 2-(2-aminobenzimidazol-1-yl)-4-(cis-2,3-dimethylmorpholino)-6-morpholinopyrimidine hydrochloride] | 250 |  | 151 to 155 °C
C[C@@H]1OCCN(c2nc(N3CCOCC3)nc(-n3c(C(F)F)nc4ccccc43)n2)[C@H]1C (relative stereo) [compound 14, 2-(2-difluoromethylbenzimidazol-1-yl)-4-(trans-2,3-dimethylmorpholino)-6-morpholino-1,3,5-triazine] | 160 | + (Cases where T/C (%) of the last day was less than 50% and U-assay of Mann-Whitney revealed significant difference with one-sided risk rate of 1% were judged to be effective (+)) | 135 to 138 °C
FC(F)c1nc2ccccc2n1-c1nc(N2CCOCC2)cc(N2CCSCC2)n1 [compound 3, 2-(2-difluoromethylbenzimidazol-1-yl)-4-morpholino-6-thiomorpholinopyrimidine] | 380 |  | 173 to 175 °C
